Data reported in PubChem BioAssay (NCI).
Several values for one entry are separate records, joined by “and”; a condition that tells them apart may be missing. Equal entries are not always repeated.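 Dose response: 5 concentrations. Exposure: 48 h. Format: 96-well plates. Endpoint: linear interpolation; highest concentration if not reached. At the GI50, growth is halved. TGI denotes the concentration required for complete inhibition of growth.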

Experiments:
Assay in all cases: NCI tumour cell line growth inhibition, 48 h
A498 renal = system: A498 renal
DU-145 prostate = system: DU-145 prostate
HOP-92 NSCLC = system: HOP-92 NSCLC
K-562 leukemia = system: K-562 leukemia
LOX IMVI melanoma = system: LOX IMVI melanoma
MOLT-4 leukemia = system: MOLT-4 leukemia
NCI-H460 lung = system: NCI-H460 lung
SK-MEL-2 melanoma = system: SK-MEL-2 melanoma
UO-31 renal = system: UO-31 renal

## O=C(Oc1cccnc1)c1cccnc1Nc1ccnc(C(F)(F)F)c1
A498 renal
  GI50: 19.6 µM
  TGI: 41 µM
DU-145 prostate
  GI50: 15 µM
  TGI: 42.1 µM
HOP-92 NSCLC
  GI50: > 100 µM
  TGI: > 100 µM
K-562 leukemia
  GI50: 5.18 µM
  TGI: > 100 µM
LOX IMVI melanoma
  GI50: 8.16 µM
  TGI: 26 µM
MOLT-4 leukemia
  GI50: 3.87 µM
  TGI: 23.8 µM
NCI-H460 lung
  GI50: 40.4 µM
  TGI: > 100 µM
SK-MEL-2 melanoma
  GI50: 5.7 µM
  TGI: 62 µM
UO-31 renal
  GI50: 10 µM
  TGI: 81.5 µM

## COc1ccc2c(c1)C(=O)/C(=C/c1cccc(OCC(=O)c3ccccc3)c1)CC2
A498 renal
  GI50: 17.3 µM
  TGI: 80.8 µM
DU-145 prostate
  GI50: 32.6 µM
  TGI: > 100 µM
HOP-92 NSCLC
  TGI: 0.792 µM
K-562 leukemia
  GI50: 1.98 µM
  TGI: 5.82 µM
LOX IMVI melanoma
  GI50: 9.61 µM
  TGI: > 100 µM
MOLT-4 leukemia
  GI50: 3.05 µM
  TGI: 6.82 µM
NCI-H460 lung
  GI50: 28.1 µM
  TGI: > 100 µM
SK-MEL-2 melanoma
  GI50: 13.4 µM
  TGI: > 100 µM
UO-31 renal
  GI50: 29.2 µM
  TGI: > 100 µM

## Cc1ccc(S(=O)(=O)SC/C=C\CSS(=O)(=O)c2ccc(C)cc2)cc1
A498 renal
  TGI: > 100 µM
DU-145 prostate
  TGI: > 66.9 µM
HOP-92 NSCLC
  TGI: > 72.7 µM and 37.9 µM
K-562 leukemia
  TGI: 25.2 µM and 64.9 µM
LOX IMVI melanoma
  GI50: 4.68 µM and 13.5 µM
  TGI: 33.2 µM and 29.1 µM
MOLT-4 leukemia
  TGI: 14.6 µM and 72.6 µM
NCI-H460 lung
  TGI: > 94 µM and 99.4 µM
SK-MEL-2 melanoma
  TGI: > 92.6 µM
UO-31 renal
  TGI: > 100 µM

## Cn1c(=O)c(N=Nc2c(=O)n(C)c(=O)n3c2[nH]c2ccccc23)c2[nH]c3ccccc3n2c1=O
A498 renal
  TGI: > 100 µM
HOP-92 NSCLC
  TGI: > 100 µM
K-562 leukemia
  TGI: > 100 µM
LOX IMVI melanoma
  TGI: > 100 µM
NCI-H460 lung
  TGI: > 100 µM
SK-MEL-2 melanoma
  TGI: > 100 µM
UO-31 renal
  TGI: > 100 µM

## COc1ccc2nccc(C3=CCC4CCN(C(=O)c5ccccc5)C3C4)c2c1 (centres undefined)
A498 renal
  TGI: > 100 µM
HOP-92 NSCLC
  TGI: > 100 µM
K-562 leukemia
  TGI: > 100 µM
LOX IMVI melanoma
  TGI: > 100 µM
MOLT-4 leukemia
  TGI: > 100 µM
NCI-H460 lung
  TGI: > 100 µM
SK-MEL-2 melanoma
  TGI: > 100 µM
UO-31 renal
  TGI: > 100 µM

## CN(C(=O)/C=C/c1ccccc1)C1C2CN3CCC(O2)C13 (centres undefined)
A498 renal
  TGI: > 100 µM
K-562 leukemia
  TGI: > 100 µM
LOX IMVI melanoma
  TGI: > 100 µM
MOLT-4 leukemia
  TGI: > 100 µM
NCI-H460 lung
  TGI: > 100 µM
SK-MEL-2 melanoma
  TGI: > 100 µM
UO-31 renal
  TGI: > 100 µM

## O=C1Nc2ccccc2C1(O)C/C(=N/O)c1ccc2ccccc2c1 (centres undefined)
A498 renal
  TGI: > 100 µM
K-562 leukemia
  TGI: > 100 µM
LOX IMVI melanoma
  TGI: 81.9 µM
MOLT-4 leukemia
  TGI: > 100 µM
NCI-H460 lung
  TGI: > 100 µM
SK-MEL-2 melanoma
  TGI: > 100 µM
UO-31 renal
  TGI: > 100 µM

## CCc1cccc(C)c1NS(=O)(=O)c1ccccc1
A498 renal
  TGI: > 100 µM
K-562 leukemia
  TGI: > 100 µM
MOLT-4 leukemia
  TGI: > 100 µM
NCI-H460 lung
  TGI: > 100 µM
SK-MEL-2 melanoma
  TGI: > 100 µM
UO-31 renal
  TGI: > 100 µM

## CC[O-].CC[O-].O=C([CH-]C(=O)c1ccccc1)CCCCCCCCC(=O)[CH-]C(=O)c1ccccc1.[Ti+4]
A498 renal
  GI50: > 100 µM
  TGI: > 100 µM
HOP-92 NSCLC
  GI50: 67.5 µM
  TGI: > 100 µM
K-562 leukemia
  GI50: > 100 µM
  TGI: > 100 µM
LOX IMVI melanoma
  GI50: > 100 µM
  TGI: > 100 µM
MOLT-4 leukemia
  GI50: 53.9 µM
  TGI: > 100 µM
NCI-H460 lung
  GI50: > 100 µM
  TGI: > 100 µM
SK-MEL-2 melanoma
  GI50: > 100 µM
  TGI: > 100 µM

## O=C1C[C@H]2CCCN2[C@@H](c2ccccc2)C1
A498 renal
  TGI: > 100 µM
HOP-92 NSCLC
  TGI: > 100 µM
K-562 leukemia
  TGI: > 100 µM
LOX IMVI melanoma
  TGI: > 100 µM
MOLT-4 leukemia
  TGI: > 100 µM
NCI-H460 lung
  TGI: > 100 µM
SK-MEL-2 melanoma
  TGI: > 100 µM
UO-31 renal
  TGI: > 100 µM

## O=C(O)CCNS(=O)(=O)c1ccc(NC(=O)c2ccccc2)cc1
A498 renal
  TGI: > 100 µM
HOP-92 NSCLC
  TGI: > 100 µM
K-562 leukemia
  TGI: > 100 µM
LOX IMVI melanoma
  TGI: > 100 µM
MOLT-4 leukemia
  TGI: > 100 µM
NCI-H460 lung
  TGI: > 100 µM
SK-MEL-2 melanoma
  TGI: > 100 µM
UO-31 renal
  TGI: > 100 µM

## c1ccc(C2ONC3=NCCN32)cc1 (centres undefined)
A498 renal
  GI50: 1.97 µM
  TGI: 9.02 µM
DU-145 prostate
  GI50: 62.1 µM
  TGI: > 100 µM
K-562 leukemia
  GI50: 16.1 µM
  TGI: > 100 µM
LOX IMVI melanoma
  GI50: 11.3 µM
  TGI: > 100 µM
MOLT-4 leukemia
  GI50: 12.2 µM
  TGI: 34.6 µM
NCI-H460 lung
  GI50: 44.9 µM
  TGI: > 100 µM
SK-MEL-2 melanoma
  GI50: > 100 µM
  TGI: > 100 µM
UO-31 renal
  GI50: 27.3 µM
  TGI: > 100 µM

## CCc1c(C#N)c(=O)[nH]c(=O)n1CCN1CCN(C(=O)NCCCCCCNC(=O)N2CCN(CCn3c(CC)c(C#N)c(=O)[nH]c3=O)CC2)CC1
A498 renal
  TGI: > 100 µM
K-562 leukemia
  TGI: > 100 µM
LOX IMVI melanoma
  TGI: > 100 µM
MOLT-4 leukemia
  TGI: > 100 µM
NCI-H460 lung
  TGI: > 100 µM

## O=C(NCCCOC(=O)CCCCCCCCC(=O)OCCCNC(=O)NC(=O)c1c[nH]c(=O)[nH]c1=O)NC(=O)c1c[nH]c(=O)[nH]c1=O
A498 renal
  TGI: > 100 µM
HOP-92 NSCLC
  TGI: > 100 µM
K-562 leukemia
  TGI: > 100 µM
LOX IMVI melanoma
  TGI: > 100 µM
MOLT-4 leukemia
  TGI: > 100 µM
NCI-H460 lung
  TGI: > 100 µM
SK-MEL-2 melanoma
  TGI: > 100 µM

## CCSCCCSCCSCC
DU-145 prostate
  TGI: > 100 µM
K-562 leukemia
  TGI: > 100 µM
LOX IMVI melanoma
  TGI: > 100 µM
MOLT-4 leukemia
  TGI: 84.5 µM
NCI-H460 lung
  TGI: > 100 µM
UO-31 renal
  TGI: > 100 µM

## CN1N=CSC12C(=O)N(c1ccccc1)C(=O)N2c1ccccc1 (centres undefined)
A498 renal
  TGI: > 100 µM
K-562 leukemia
  TGI: > 100 µM
LOX IMVI melanoma
  TGI: > 100 µM
MOLT-4 leukemia
  TGI: > 100 µM
NCI-H460 lung
  TGI: > 100 µM
SK-MEL-2 melanoma
  TGI: > 100 µM
UO-31 renal
  TGI: > 100 µM

## O=C(N/N=C/c1ccccc1O)N/N=C/c1ccccc1O
A498 renal
  TGI: > 100 µM
HOP-92 NSCLC
  TGI: > 100 µM
K-562 leukemia
  TGI: > 100 µM
LOX IMVI melanoma
  TGI: > 100 µM
MOLT-4 leukemia
  TGI: > 100 µM
NCI-H460 lung
  TGI: > 100 µM
SK-MEL-2 melanoma
  TGI: > 100 µM
UO-31 renal
  TGI: > 100 µM
